Assay results: patent publication US6977262B2, “Dihydropyrazolopyridine compounds and pharmaceutical use thereof” (Mitsubishi Pharma Corporation, priority 2001, dated 2005)

| melting point [°C] | SMILES |
| --- | --- |
| 159 to 162 | CCCC1=C(C(=O)OCC)C(c2cccc(F)c2C)c2c[nH]nc2N1 (stereo not drawn) [Example 45, Ethyl 4-(3-fluoro-2-methylphenyl)-4,7-dihydro-6-propyl-2H-pyrazolo[3,4-b]pyridine-5-carboxylate] |
| 205 to 206 | CCCC1=C(C(=O)OCC)C(c2cccc(OC)c2OC)c2c[nH]nc2N1 (stereo not drawn) [Example 46, Ethyl 4-(2,3-dimethoxyphenyl)-4,7-dihydro-6-propyl-2H-pyrazolo[3,4-b]pyridine-5-carboxylate] |
| 236 to 238 | CCCC1=C(C(=O)OCC)C(c2cccc(C(F)(F)F)c2Cl)c2c[nH]nc2N1 (stereo not drawn) [Example 47, Ethyl 4-(2-chloro-3-trifluoromethylphenyl)-4,7-dihydro-6-propyl-2H-pyrazolo[3,4-b]pyridine-5-carboxylate] |
| 168 to 169 | CCCC1=C(C(=O)OCC)C(c2cc(F)ccc2F)c2c[nH]nc2N1 (stereo not drawn) [Example 49, Ethyl 4-(2,5-difluorophenyl)-4,7-dihydro-6-propyl-2H-pyrazolo[3,4-b]pyridine-5-carboxylate] |
| 162 | CCCC1=C(C(=O)OCC)C(c2cc(Cl)ccc2Cl)c2c[nH]nc2N1 (stereo not drawn) [Example 50, Ethyl 4-(2,5-dichlorophenyl)-4,7-dihydro-6-propyl-2H-pyrazolo[3,4-b]pyridine-5-carboxylate] |
| 164 to 167 | CCCC1=C(C(=O)OCC)C(c2cc(F)ccc2OC)c2c[nH]nc2N1 (stereo not drawn) [Example 51, Ethyl 4-(5-fluoro-2-methoxyphenyl)-4,7-dihydro-6-propyl-2H-pyrazolo[3,4-b]pyridine-5-carboxylate] |
| 182 | CCCC1=C(C(=O)OCC)C(c2cc(OC)ccc2Cl)c2c[nH]nc2N1 (stereo not drawn) [Example 52, Ethyl 4-(2-chloro-5-methoxyphenyl)-4,7-dihydro-6-propyl-2H-pyrazolo[3,4-b]pyridine-5-carboxylate] |
| 169 to 170 | CCCC1=C(C(=O)OCC)C(c2cc(OC)ccc2OC)c2c[nH]nc2N1 (stereo not drawn) [Example 53, Ethyl 4-(2,5-dimethoxyphenyl)-4,7-dihydro-6-propyl-2H-pyrazolo[3,4-b]pyridine-5-carboxylate] |
| 185 | CCCC1=C(C(=O)OCC)C(c2c(F)cccc2F)c2c[nH]nc2N1 (stereo not drawn) [Example 54, Ethyl 4-(2,6-difluorophenyl)-4,7-dihydro-6-propyl-2H-pyrazolo[3,4-b]pyridine-5-carboxylate] |
| 202 | CCCC1=C(C(=O)OCC)C(c2c(Cl)cccc2Cl)c2c[nH]nc2N1 (stereo not drawn) [Example 55, Ethyl 4-(2,6-dichlorophenyl)-4,7-dihydro-6-propyl-2H-pyrazolo[3,4-b]pyridine-5-carboxylate] |
| 180 to 183 | CCCC1=C(C(=O)OCC)C(c2c(F)cccc2Cl)c2c[nH]nc2N1 (stereo not drawn) [Example 56, Ethyl 4-(2-chloro-6-fluorophenyl)-4,7-dihydro-6-propyl-2H-pyrazolo[3,4-b]pyridine-5-carboxylate] |
| 108 to 111 | CCCC1=C(C(=O)OCC)C(c2ccco2)c2c[nH]nc2N1.O=C(O)/C=C\C(=O)O (stereo not drawn) [Example 59, Ethyl 4-(furan-2-yl)-4,7-dihydro-6-propyl-2H-pyrazolo[3,4-b]pyridine-5-carboxylate maleate] |
| 123 to 125 | CCCC1=C(C(=O)OCC)C(c2ccoc2C)c2c[nH]nc2N1 (stereo not drawn) [Example 61, Ethyl 4,7-dihydro-4-(2-methylfuran-3-yl)-6-propyl-2H-pyrazolo[3,4-b]pyridine-5-carboxylate] |
| 129 to 131 | CCCC1=C(C(=O)OCC)C(c2cccs2)c2c[nH]nc2N1.O=C(O)/C=C\C(=O)O (stereo not drawn) [Example 62, Ethyl 4,7-dihydro-6-propyl-4-(thiophen-2-yl)-2H-pyrazolo[3,4-b]pyridine-5-carboxylate maleate] |
| 125 | CCCC1=C(C(=O)OCC)C(c2sccc2C)c2c[nH]nc2N1 (stereo not drawn) [Example 63, Ethyl 4,7-dihydro-4-(3-methylthiophen-2-yl)-6-propyl-2H-pyrazolo[3,4-b]pyridine-5-carboxylate] |
| 129 to 131 | CCCC1=C(C(=O)OCC)C(c2ccc(Cl)s2)c2c[nH]nc2N1.O=C(O)/C=C\C(=O)O (stereo not drawn) [Example 64, Ethyl 4-(5-chlorothiophen-2-yl)-4,7-dihydro-6-propyl-2H-pyrazolo[3,4-b]pyridine-5-carboxylate maleate] |
| 141 to 143 | CCCC1=C(C(=O)OCC)C(c2ccsc2)c2c[nH]nc2N1.O=C(O)/C=C\C(=O)O (stereo not drawn) [Example 65, Ethyl 4,7-dihydro-6-propyl-4-(thiophen-3-yl)-2H-pyrazolo[3,4-b]pyridine-5-carboxylate maleate] |
| 182 | CCCC1=C(C(=O)OCC)C(c2cccc3ccccc23)c2c[nH]nc2N1 (stereo not drawn) [Example 66, Ethyl 4,7-dihydro-4-(naphthalen-1-yl)-6-propyl-2H-pyrazolo[3,4-b]pyridine-5-carboxylate] |
| 136 to 138 | CCCC1=C(C(=O)OCC)C(c2ccc3ccccc3c2)c2c[nH]nc2N1.O=C(O)/C=C\C(=O)O (stereo not drawn) [Example 67, Ethyl 4,7-dihydro-4-(naphthalen-2-yl)-6-propyl-2H-pyrazolo[3,4-b]pyridine-5-carboxylate maleate] |
| 188 to 191 | CCCC1=C(C(=O)OCC)C(c2c(OC)ccc3ccccc23)c2c[nH]nc2N1 (stereo not drawn) [Example 68, Ethyl 4,7-dihydro-4-(2-methoxynaphthalen-1-yl)-6-propyl-2H-pyrazolo[3,4-b]pyridine-5-carboxylate] |
| 194 | CCCC1=C(C(=O)OCC)C(c2cccc3c2OCC=C3)c2c[nH]nc2N1 (stereo not drawn) [Example 72, Ethyl 4-(2H-1-benzopyran-8-yl)-4,7-dihydro-6-propyl-2H-pyrazolo[3,4-b]pyridine-5-carboxylate] |
| 208 | CCCC1=C(C(=O)OCC)C(c2cccc3c2OCCC3)c2c[nH]nc2N1 (stereo not drawn) [Example 73, Ethyl 4-(3,4-dihydro-2H-benzopyran-8-yl)-4,7-dihydro-6-propyl-2H-pyrazolo[3,4-b]pyridine-5-carboxylate] |
| 198 | CCCC1=C(C(=O)OCC)C(c2ccnc3ccccc23)c2c[nH]nc2N1 (stereo not drawn) [Example 74, Ethyl 4,7-dihydro-6-propyl-4-(quinolin-4-yl)-2H-pyrazolo[3,4-b]pyridine-5-carboxylate] |
| 222 | CCCC1=C(C(=O)OCC)C(c2csc3ccccc23)c2c[nH]nc2N1 (stereo not drawn) [Example 75, Ethyl 4-(benzo[b]thiophen-3-yl)-4,7-dihydro-6-propyl-2H-pyrazolo[3,4-b]pyridine-5-carboxylate] |
| 207 | CCCC1=C(C(=O)OCC)C(c2cccc3nonc23)c2c[nH]nc2N1 (stereo not drawn) [Example 76, Ethyl 4-(2,1,3-benzoxadiazol-4-yl)-4,7-dihydro-6-propyl-2H-pyrazolo[3,4-b]pyridine-5-carboxylate] |
| 147 to 149 | CCCC1=C(C(=O)OCC)C(c2ccc3c(c2)OCCO3)c2c[nH]nc2N1.O=C(O)/C=C\C(=O)O (stereo not drawn) [Example 80, Ethyl 4-(2,3-dihydro-1,4-benzodioxin-6-yl)-4,7-dihydro-6-propyl-2H-pyrazolo[3,4-b]pyridine-5-carboxylate maleate] |
| 123 to 125 | CCCC1=C(C(=O)OCC)C(c2cc3ccccc3o2)c2c[nH]nc2N1.O=C(O)/C=C\C(=O)O (stereo not drawn) [Example 81, Ethyl 4-(benzo[b]furan-2-yl)-4,7-dihydro-6-propyl-2H-pyrazolo[3,4-b]pyridine-5-carboxylate maleate] |
